Where two headings read alike, the source gives them in different places. A value given as a limit tells only on which side of the number the result lay.

The Ki is the dissociation constant of the complex between target and ligand, obtained from inhibition or displacement. As a reminder, the EC50 is the concentration at which the effect is half-maximal.

Assay [1] has as its target T1, rat TAAR1 (Rattus norvegicus, UniProt Q923Y9).
T1 construct: expressed in transfected cells; host or cells: HEK 293 cells (membrane preparations)
More on the design: method as in Simmler et al. (2013). To be noted: reference substance; ref Simmler et al. (2013); read-out: rTAAR1 Ki; cited from earlier work.

In assay [2] the target is T2, mouse TAAR1 (Mus musculus, UniProt Q923Y8).
T2 construct: expressed in transfected cells; host or cells: HEK 293 cells (membrane preparations)
T2 sequence (Q923Y8 whole entry): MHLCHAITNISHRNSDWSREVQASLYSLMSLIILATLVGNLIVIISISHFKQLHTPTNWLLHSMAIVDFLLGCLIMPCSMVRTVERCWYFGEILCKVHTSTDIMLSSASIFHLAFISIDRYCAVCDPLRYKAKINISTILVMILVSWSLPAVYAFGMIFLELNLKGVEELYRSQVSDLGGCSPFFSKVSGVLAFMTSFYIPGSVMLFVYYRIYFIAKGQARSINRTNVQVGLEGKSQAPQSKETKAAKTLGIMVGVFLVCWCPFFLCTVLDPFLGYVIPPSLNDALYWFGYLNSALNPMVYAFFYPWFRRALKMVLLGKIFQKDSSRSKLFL
More on the design: method as in Simmler et al. (2013). Particulars: reference substance; ref Simmler et al. (2013); read-out: mTAAR1 Ki; cited from earlier work.

Assay [3] has as its target T3, hα1A adrenergic receptor (Homo sapiens, UniProt P35348).
T3 construct: expressed in transfected cells; host or cells: Chinese hamster ovary cells (membrane preparations)
T3 sequence (P35348 1-466): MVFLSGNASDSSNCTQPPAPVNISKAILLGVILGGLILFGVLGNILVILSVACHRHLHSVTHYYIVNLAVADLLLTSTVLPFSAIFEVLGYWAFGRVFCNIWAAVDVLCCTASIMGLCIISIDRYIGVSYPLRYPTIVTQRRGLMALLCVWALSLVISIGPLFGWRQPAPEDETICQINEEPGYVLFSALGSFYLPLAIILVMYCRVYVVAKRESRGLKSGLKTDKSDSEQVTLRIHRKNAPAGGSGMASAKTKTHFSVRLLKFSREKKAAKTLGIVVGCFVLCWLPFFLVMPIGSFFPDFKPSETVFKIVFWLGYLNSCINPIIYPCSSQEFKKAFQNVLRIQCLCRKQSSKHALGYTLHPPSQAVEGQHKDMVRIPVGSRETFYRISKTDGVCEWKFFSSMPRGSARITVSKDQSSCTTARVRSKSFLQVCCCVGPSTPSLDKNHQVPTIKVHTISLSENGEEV
Also noted: method as in Simmler et al. (2013). Particulars: reference substance; ref Simmler et al. (2013); cited from earlier work.

For assay [4], the target named is T4, hα2A adrenergic receptor (Homo sapiens, UniProt P08913).
T4 construct: expressed in transfected cells; host or cells: Chinese hamster lung cells (membrane preparations)
T4 sequence (P08913 1-465): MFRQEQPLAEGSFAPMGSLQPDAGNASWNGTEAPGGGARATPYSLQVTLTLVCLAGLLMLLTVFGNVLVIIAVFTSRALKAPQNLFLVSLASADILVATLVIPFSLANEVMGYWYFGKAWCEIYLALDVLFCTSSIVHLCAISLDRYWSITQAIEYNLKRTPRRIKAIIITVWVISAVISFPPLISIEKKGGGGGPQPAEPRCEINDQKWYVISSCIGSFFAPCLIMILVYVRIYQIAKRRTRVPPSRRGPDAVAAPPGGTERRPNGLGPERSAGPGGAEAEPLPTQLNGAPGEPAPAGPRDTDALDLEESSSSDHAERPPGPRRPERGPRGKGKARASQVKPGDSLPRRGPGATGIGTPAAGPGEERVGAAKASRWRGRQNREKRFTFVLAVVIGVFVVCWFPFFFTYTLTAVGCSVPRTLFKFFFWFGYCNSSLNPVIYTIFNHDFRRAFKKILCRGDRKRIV
Also noted: method as in Simmler et al. (2013). To be noted: reference substance; ref Simmler et al. (2013); cited from earlier work.

Assay [5] concerns the target T5, dopaminergic hD2 receptor (Homo sapiens, UniProt P14416).
T5 construct: expressed in transfected cells; host or cells: HEK 293 cells (membrane preparations)
More on the design: method as in Simmler et al. (2013). Particulars: reference substance; ref Simmler et al. (2013); cited from earlier work.

The target of assay [6] is T6, hNET (Homo sapiens, UniProt P23975).
T6 construct: expressed in transfected cells; host or cells: HEK 293 cells (membrane preparations)
T6 sequence (P23975 whole entry): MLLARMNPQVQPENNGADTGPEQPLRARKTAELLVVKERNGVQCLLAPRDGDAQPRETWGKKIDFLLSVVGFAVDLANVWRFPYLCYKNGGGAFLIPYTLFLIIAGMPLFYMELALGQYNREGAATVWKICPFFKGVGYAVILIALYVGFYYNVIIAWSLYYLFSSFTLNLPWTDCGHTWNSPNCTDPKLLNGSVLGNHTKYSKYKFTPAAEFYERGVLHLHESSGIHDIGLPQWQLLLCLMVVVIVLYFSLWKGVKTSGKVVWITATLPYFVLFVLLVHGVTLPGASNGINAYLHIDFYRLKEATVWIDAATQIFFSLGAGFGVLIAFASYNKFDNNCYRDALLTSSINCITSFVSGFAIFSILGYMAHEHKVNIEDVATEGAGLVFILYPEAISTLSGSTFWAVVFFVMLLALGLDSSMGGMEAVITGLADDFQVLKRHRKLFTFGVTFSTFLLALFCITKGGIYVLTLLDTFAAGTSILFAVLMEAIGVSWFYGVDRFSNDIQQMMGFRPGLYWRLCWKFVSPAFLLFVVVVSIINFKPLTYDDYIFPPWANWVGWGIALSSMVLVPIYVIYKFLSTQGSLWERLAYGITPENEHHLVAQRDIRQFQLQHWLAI
More on the design: method as in Simmler et al. (2013). Particulars: reference substance; ref Simmler et al. (2013); cited from earlier work.

The target in assay [7] is T7, hDAT (Homo sapiens, UniProt Q01959).
T7 construct: expressed in transfected cells; host or cells: HEK 293 cells (membrane preparations)
T7 sequence (Q01959 whole entry): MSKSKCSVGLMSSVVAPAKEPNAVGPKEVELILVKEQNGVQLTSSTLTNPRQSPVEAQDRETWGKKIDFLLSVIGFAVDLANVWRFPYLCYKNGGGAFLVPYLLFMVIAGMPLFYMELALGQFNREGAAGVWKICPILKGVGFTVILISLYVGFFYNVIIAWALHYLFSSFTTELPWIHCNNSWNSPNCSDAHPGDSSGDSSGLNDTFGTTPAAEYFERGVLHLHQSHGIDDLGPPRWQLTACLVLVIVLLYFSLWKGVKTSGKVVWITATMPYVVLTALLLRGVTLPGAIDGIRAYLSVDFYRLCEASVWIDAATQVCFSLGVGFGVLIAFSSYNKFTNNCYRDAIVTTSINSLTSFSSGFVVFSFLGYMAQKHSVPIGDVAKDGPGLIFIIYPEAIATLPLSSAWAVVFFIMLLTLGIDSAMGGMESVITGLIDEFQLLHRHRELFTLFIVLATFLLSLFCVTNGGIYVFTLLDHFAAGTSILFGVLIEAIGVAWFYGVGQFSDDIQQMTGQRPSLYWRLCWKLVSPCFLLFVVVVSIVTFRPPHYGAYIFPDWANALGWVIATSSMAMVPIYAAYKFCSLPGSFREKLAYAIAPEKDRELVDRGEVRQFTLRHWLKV
More on the design: method as in Simmler et al. (2013). Particulars: reference substance; ref Simmler et al. (2013); cited from earlier work.

Assay [8] has as its target T8, hSERT (Homo sapiens, UniProt P31645).
T8 construct: expressed in transfected cells; host or cells: HEK 293 cells (membrane preparations)
More on the design: method as in Simmler et al. (2013). To be noted: reference substance; ref Simmler et al. (2013); cited from earlier work.

A further assay deals with T9, h5-HT1A receptor (Homo sapiens, UniProt P08908).
T9 construct: expressed in transfected cells; host or cells: HEK 293 cells (membrane preparations)
T9 sequence (P08908 1-422): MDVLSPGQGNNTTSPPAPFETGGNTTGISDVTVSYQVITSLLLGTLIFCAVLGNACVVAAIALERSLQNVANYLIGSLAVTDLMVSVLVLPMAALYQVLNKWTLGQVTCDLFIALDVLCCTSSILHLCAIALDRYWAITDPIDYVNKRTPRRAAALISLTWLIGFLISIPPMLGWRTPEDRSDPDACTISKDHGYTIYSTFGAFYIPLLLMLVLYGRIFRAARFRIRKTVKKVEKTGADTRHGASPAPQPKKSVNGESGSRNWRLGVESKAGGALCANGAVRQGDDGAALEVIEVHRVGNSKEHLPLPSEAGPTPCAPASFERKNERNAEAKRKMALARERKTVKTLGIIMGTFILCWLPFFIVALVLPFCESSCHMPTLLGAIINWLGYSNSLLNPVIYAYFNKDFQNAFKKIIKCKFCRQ
The experiment in a line: Radioligand binding at h5-HT1A receptor ([3H]8-OH-DPAT).

The target of the next assay is T10, h5-HT2A receptor (Homo sapiens, UniProt P28223).
T10 construct: expressed in transfected cells; host or cells: HEK 293 cells (membrane preparations)
T10 sequence (P28223 whole entry): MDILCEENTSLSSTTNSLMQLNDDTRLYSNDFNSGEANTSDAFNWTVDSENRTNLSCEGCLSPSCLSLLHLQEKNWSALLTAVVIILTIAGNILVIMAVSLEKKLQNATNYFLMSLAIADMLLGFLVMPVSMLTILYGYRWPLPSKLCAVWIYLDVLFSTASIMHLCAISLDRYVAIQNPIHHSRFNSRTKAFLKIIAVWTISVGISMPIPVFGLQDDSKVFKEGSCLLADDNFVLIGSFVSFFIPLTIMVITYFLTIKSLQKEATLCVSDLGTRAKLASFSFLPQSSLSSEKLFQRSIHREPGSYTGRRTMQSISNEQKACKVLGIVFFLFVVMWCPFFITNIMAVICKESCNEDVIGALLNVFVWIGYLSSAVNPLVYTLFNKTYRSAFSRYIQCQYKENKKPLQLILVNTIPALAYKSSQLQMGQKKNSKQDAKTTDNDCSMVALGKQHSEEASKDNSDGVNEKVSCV
The experiment in a line: Radioligand binding at h5-HT2A receptor ([3H]ketanserin). To be noted: h5-HT2A Receptor binding Ki ± SD, [3H]ketanserin; mean ± SD.

The target in the next assay is T11, h5-HT2C receptor (Homo sapiens, UniProt P28335).
T11 construct: expressed in transfected cells; host or cells: HEK 293 cells (membrane preparations)
T11 sequence (P28335 33-458): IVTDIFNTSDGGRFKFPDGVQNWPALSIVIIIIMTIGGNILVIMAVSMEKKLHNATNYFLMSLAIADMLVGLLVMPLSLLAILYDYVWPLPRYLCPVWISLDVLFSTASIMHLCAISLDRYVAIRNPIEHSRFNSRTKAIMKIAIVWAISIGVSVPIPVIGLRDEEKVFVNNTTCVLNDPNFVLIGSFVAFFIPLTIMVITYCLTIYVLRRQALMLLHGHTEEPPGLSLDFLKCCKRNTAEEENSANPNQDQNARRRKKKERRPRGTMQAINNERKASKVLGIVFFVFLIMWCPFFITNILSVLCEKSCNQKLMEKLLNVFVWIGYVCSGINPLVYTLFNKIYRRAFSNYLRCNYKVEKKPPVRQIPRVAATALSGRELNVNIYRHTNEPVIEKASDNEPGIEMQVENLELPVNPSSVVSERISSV
Kind of assay: biochemical. Format: binding. To be noted: [3H]mesulergine; mean ± SD; read-out: h5-HT2C Receptor binding Ki ± SD.

The target in assay [9] is T1, rat TAAR1. Kind of assay: Radioligand binding at rat TAAR1 ([3H]RO5166017).
The target of assay [10] is T2, mouse TAAR1. The experiment in a line: Radioligand binding at mouse TAAR1 ([3H]RO5166017).
Assay [11] deals with T3, hα1A adrenergic receptor. The experiment in a line: Radioligand binding at hα1A adrenergic receptor ([3H]prazosin). Particulars: mean ± SD.
Assay [12] concerns the target T4, hα2A adrenergic receptor. The experiment in a line: Radioligand binding at hα2A adrenergic receptor ([3H]rauwolscine).
For assay [13], the target named is T5, dopaminergic hD2 receptor. Kind of assay: Radioligand binding at dopaminergic hD2 receptor ([3H]spiperone).
Assay [14] concerns the target T6, hNET. The experiment in a line: Radioligand binding at hNET (N-methyl-[3H]nisoxetine).
For assay [15], the target named is T7, hDAT. The experiment in a line: Radioligand binding at hDAT ([3H]WIN35,428).
The target in assay [16] is T8, hSERT. The experiment in a line: Radioligand binding at hSERT ([3H]citalopram).
A further assay concerns humans. To be noted: ref Shulgin and Shulgin 1991, cited from earlier work.
In another assay the target is human 5-HT2B receptor (Homo sapiens, UniProt P41595). Particulars: h5-HT2B Activation potency EC50 ± SD, HEK 293 cells, calcium FLIPR; mean ± SD.
Sequence of human 5-HT2B receptor (P41595 whole entry): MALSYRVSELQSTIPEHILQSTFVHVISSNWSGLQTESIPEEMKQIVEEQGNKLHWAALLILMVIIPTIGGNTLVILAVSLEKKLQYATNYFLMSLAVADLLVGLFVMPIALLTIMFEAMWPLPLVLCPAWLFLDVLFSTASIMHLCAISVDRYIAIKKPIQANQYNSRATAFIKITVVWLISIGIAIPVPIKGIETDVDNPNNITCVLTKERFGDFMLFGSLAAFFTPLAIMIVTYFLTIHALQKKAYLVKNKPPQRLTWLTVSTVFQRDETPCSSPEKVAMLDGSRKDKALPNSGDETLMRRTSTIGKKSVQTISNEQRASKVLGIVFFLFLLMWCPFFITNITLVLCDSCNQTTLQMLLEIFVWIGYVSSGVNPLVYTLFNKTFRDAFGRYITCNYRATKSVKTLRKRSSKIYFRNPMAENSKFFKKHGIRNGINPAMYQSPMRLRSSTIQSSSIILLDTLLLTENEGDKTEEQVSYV
The next assay has as its target human 5-HT2A receptor (Homo sapiens, UniProt P28223). More on the design: expressed in transfected cells; host or cells: NIH-3T3 cells (mouse embryonic fibroblasts). To be noted: read-out: h5-HT2A Activation potency EC50 ± SD; mescaline; ref Rickli et al. (2016); cited from earlier work.

T8 sequence (P31645 whole entry): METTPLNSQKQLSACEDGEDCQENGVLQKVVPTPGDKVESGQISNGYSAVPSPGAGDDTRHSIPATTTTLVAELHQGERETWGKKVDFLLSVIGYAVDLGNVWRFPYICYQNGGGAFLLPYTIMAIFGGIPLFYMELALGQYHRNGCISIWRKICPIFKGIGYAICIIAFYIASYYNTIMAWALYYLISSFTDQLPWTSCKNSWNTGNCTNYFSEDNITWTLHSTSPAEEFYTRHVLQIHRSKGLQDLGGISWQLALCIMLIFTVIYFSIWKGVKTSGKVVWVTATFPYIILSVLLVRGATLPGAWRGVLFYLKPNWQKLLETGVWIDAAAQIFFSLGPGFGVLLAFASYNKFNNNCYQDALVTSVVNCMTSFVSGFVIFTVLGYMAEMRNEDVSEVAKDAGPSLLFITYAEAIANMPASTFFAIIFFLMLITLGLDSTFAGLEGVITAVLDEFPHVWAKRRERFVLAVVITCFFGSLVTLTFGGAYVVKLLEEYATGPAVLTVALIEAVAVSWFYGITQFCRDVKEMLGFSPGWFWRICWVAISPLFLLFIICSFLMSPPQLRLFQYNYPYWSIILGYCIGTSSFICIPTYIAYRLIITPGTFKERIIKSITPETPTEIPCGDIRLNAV
T5 sequence (P14416 whole entry): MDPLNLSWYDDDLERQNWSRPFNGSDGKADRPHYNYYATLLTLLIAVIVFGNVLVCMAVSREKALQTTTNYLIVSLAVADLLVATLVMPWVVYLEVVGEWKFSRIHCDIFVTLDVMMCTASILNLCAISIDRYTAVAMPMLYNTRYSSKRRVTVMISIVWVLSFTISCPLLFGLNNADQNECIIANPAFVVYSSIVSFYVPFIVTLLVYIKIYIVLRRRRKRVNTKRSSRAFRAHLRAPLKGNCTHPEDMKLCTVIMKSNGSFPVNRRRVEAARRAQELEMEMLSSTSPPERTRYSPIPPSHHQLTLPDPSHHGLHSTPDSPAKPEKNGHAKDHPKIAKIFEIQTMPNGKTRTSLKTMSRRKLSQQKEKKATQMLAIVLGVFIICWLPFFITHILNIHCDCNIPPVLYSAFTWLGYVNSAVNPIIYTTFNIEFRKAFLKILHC
T1 sequence (Q923Y9 whole entry): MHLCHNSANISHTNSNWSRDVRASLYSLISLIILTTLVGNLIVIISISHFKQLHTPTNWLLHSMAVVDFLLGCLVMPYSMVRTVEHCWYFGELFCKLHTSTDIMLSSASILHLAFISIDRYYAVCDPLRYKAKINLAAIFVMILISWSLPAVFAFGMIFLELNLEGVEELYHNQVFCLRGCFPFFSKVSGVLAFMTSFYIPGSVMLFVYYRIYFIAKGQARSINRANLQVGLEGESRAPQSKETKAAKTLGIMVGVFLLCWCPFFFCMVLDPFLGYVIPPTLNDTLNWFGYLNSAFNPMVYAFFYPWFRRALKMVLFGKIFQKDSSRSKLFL
Sequence of human 5-HT2A receptor (P28223 whole entry): as the sequence (P28223 whole entry) above

As for `CNC(C)Cc1ccc2c(c1)OCO2` (stereo not drawn) [MDMA], the Ki on rat TAAR1 [1] was 0.37 ± 0.12 µM; at mouse TAAR1 [2] it was 2.4 µM; on hα1A adrenergic receptor [3], above 8.7 µM; at hα2A adrenergic receptor [4] it was above 5.1 µM; in assay [5], above 6.3 µM; on hNET [6] it was above 9.7 µM. Moreover, the Ki at hDAT [7] was above 8.5 µM; on hSERT [8], above 7.5 µM.

Turning to `COc1cc(CCN)cc(OC)c1OC` [compound 5, 3,4,5-trimethoxyphenethylamine], the inhibition constant Ki on h5-HT1A receptor was 6.7 µM; at h5-HT2A receptor, 9.4 µM; at h5-HT2C receptor, 9.9 µM; at rat TAAR1 [9] it was 3 µM; on mouse TAAR1 [10], above 4.2 µM; on hα1A adrenergic receptor [11] it was above 8.7 µM. Besides, the Ki was 2 µM at hα2A adrenergic receptor [12]; above 6.3 µM in assay [13]; above 9.7 µM on hNET [14]; above 8.5 µM on hDAT [15]; above 7.5 µM on hSERT [16]. Besides, in the assay on humans (humans, Shulgin and Shulgin 1997, Trachsel et al., 2013, listed as mescaline), the Duration of action was 8 to 12 h. Moreover, in the assay on humans (psychedelic dose in humans, Shulgin and Shulgin 1997, Trachsel et al., 2013), the Human oral dose was 180 to 360 mg. For the same compound, the “Psychedelic / active dose in humans” value in the assay on humans was 180 to 360 mg. In addition, the EC50 is above 10 µM at human 5-HT2B receptor and 10 µM at human 5-HT2A receptor.
